In patent publication US20070074295A1 (priority 2000, published 2007):

How the values were obtained:
[1] = tested on: rats; assay: Effect of haloperidol and clozapine on PCP induced hypofunction: LCGU; format: in vivo, rat; conditions: for LCGU, Au layer I / LCGU, Au layers II, III&IV / LCGU, Au layers V & VI / LCGU, AuD layer I / LCGU, AuD layers II, III&IV / LCGU, AuD layers V & VI / LCGU, CA1 molecular layer / LCGU, CA1 pyramidal cell layer / LCGU, CA1 stratum oriens / LCGU, CA1 stratum radiatum / LCGU, CA3 molecular layer / LCGU, CA3 pyramidal cell layer / LCGU, CA3 stratum oriens / LCGU, CA3 stratum radiatum / LCGU, DLL / LCGU, MD / LCGU, PrL layer I / LCGU, PrL layers II & III / LCGU, PrL layers V & VI / LCGU, Rt / LCGU, VLL / LCGU, cochlear nucleus / LCGU, mO layer I / LCGU, mO layers II & III / LCGU, mO layers V & VI: day 29
Source text: The effect of antipsychotics on the positive symptoms is less well studied regarding imaging studies.

[2] = tested on: CIRL1 mRNA; assay: Semi-quantitative RT-PCR, prefrontal cortex, chronic PCP and antipsychotic treatment; format: in vivo, rat; conditions: chronic PCP plus antipsychotic
Method: FIG. 14 illustrates the level of CIRL1 mRNA present in the prefrontal cortex of rat brain following chronic PCP and antipsychotic treatment (n=12 for all groups apart from veh-veh where n=11). […] and […] (SEQ ID NOS: 25-26) were the primer sequences used to amplify this product.
(§1) RT-PCR for specific isoforms of CIRL was then conducted in the prefrontal cortex.
(§2) 1 ml of lysis buffer (Qiagen), including 1% β-mercaptoethanol, was added to approximately 50-100 mg of brain tissue. Tissue samples were homogenised using a ribolyser (Hybaid) with 3 bursts at 6.5 g lasting 20 seconds each. Samples were then spun at room temperature in a microfuge for 3 minutes. The supernatant was removed and re-spun for a further 3 minutes. The supernatant was decanted to a fresh tube to which an equal volume of 70% ethanol was added. The remaining RNA isolation procedure was carried out according to the manufacturer's protocol (Qiagen).
(§3) Synthesis of cDNA was carried out according to manufacturers protocols (Life Technologies). Briefly 3-5μg of total RNA was reverse transcribed using oligo dT priming. After cDNA synthesis, samples were aliquoted and stored at −70° C. […]
(§4) Alterations in expression levels were determined by semi-quantitative PCR. […] Samples were removed over 4 consecutive cycles, however, the first cycle to be removed sometimes varied depending on when logarithmic amplification was detected. […]

[3] = tested on: CIRL2 variant AB mRNA; assay: as above; format: in vivo, rat; conditions: chronic PCP plus antipsychotic
Method: FIG. 15 illustrates the level of CIRL2 variant AB mRNA present in the prefrontal cortex of rat brain following chronic PCP and antipsychotic treatment (n=12 for all groups apart from veh-veh where n=11). […] and […] (SEQ ID NOS: 27-28) were the primer sequences used to amplify this product.
as §1, §2, §3, §4

[4] = tested on: CIRL3 variant AA mRNA; assay: as above; format: in vivo, rat; conditions: chronic PCP plus antipsychotic
Method: FIG. 16 illustrates the level of CIRL3 variant AA mRNA present in the prefrontal cortex of rat brain following chronic PCP and antipsychotic treatment (n=12 for all groups apart from veh-veh where n=11) […] and […] (SEQ ID NOS: 29-30) were the primer sequences used to amplify this product.
as §1, §2, §3, §4

[5] = tested on: TNFα mRNA; assay: RT-PCR for TNFα mRNA in rat prefrontal cortex; format: in vivo; conditions: chronic PCP in combination with haloperidol vs chronic PCP group
Method: Four groups of rats were treated with (a) chronic PCP, (b) chronic vehicle (control), (c) chronic PCP plus chronic clozapine (as above) or (d) chronic PCP plus chronic haloperidol (as above). The tissue was processed for RNA extraction and RT-PCP as described above, using primers specific for TNFα mRNA.

[6] = antipsychotic in conjunction with PCP 2.58 mgkg^−1
[7] = clozapine or haloperidol via minipump
[8] = i.p. PCP 2.58 mgkg^−1, minipump vehicle, clozapine 20 or haloperidol 1 mgkg^−1/day
[9] = i.p. vehicle, minipump clozapine 20 or haloperidol 1 mgkg^−1/day

O=C(CCCN1CCC(O)(c2ccc(Cl)cc2)CC1)c1ccc(F)cc1 [haloperidol]
effect on PCP hypofunction in medial orbital cortex, prelimbic cortex, CA1, reticular nucleus of the thalamus [1, 6]: failed to modulate the hypofunction produced by PCP
effect on PCP-induced hypofunction in auditory system (AuD, lateral lemniscus, cochlear nucleus) [1, 6]: reversed the PCP-induced hypofunction
LCGU in auditory system (AuD, lateral lemniscus, cochlear nucleus), drug alone [1, 7]: did not produce a significant hypofunction
LCGU in medial orbital cortex, prelimbic cortex, CA1, reticular nucleus of the thalamus, drug alone [1, 7]: produced a metabolic hypofunction
LCGU, Au layer I [1, 8]: 141 ± 8 μmol/100 g/min
LCGU, Au layers II, III&IV [1, 8]: 174 ± 10 μmol/100 g/min
LCGU, Au layers V & VI [1, 8]: 117 ± 7 μmol/100 g/min
LCGU, AuD layer I [1, 8]: 133 ± 7 μmol/100 g/min
LCGU, AuD layers II, III&IV [1, 8]: 156 ± 10 μmol/100 g/min
LCGU, AuD layers V & VI [1, 8]: 106 ± 6 μmol/100 g/min
LCGU, CA1 molecular layer [1, 8]: 97 ± 4 μmol/100 g/min
LCGU, CA1 pyramidal cell layer [1, 8]: 70 ± 4 μmol/100 g/min
LCGU, CA1 stratum oriens [1, 8]: 64 ± 4 μmol/100 g/min
LCGU, CA1 stratum radiatum [1, 8]: 74 ± 4 μmol/100 g/min
LCGU, CA3 molecular layer [1, 8]: 94 ± 6 μmol/100 g/min
LCGU, CA3 pyramidal cell layer [1, 8]: 74 ± 5 μmol/100 g/min
LCGU, CA3 stratum oriens [1, 8]: 69 ± 5 μmol/100 g/min
LCGU, CA3 stratum radiatum [1, 8]: 76 ± 5 μmol/100 g/min
LCGU, DLL [1, 8]: 107 ± 2 μmol/100 g/min
LCGU, MD [1, 8]: 119 ± 6 μmol/100 g/min
LCGU, PrL layer I [1, 8]: 115 ± 3 μmol/100 g/min
LCGU, PrL layers II & III [1, 8]: 134 ± 4 μmol/100 g/min
LCGU, PrL layers V & VI [1, 8]: 97 ± 3 μmol/100 g/min
LCGU, Rt [1, 8]: 80 ± 1 μmol/100 g/min
LCGU, VLL [1, 8]: 110 ± 3 μmol/100 g/min
LCGU, cochlear nucleus [1, 8]: 115 ± 2 μmol/100 g/min
LCGU, mO layer I [1, 8]: 105 ± 4 μmol/100 g/min
LCGU, mO layers II & III [1, 8]: 116 ± 4 μmol/100 g/min
LCGU, mO layers V & VI [1, 8]: 119 ± 4 μmol/100 g/min
LCGU, Au layer I [1, 9]: 142 ± 9 μmol/100 g/min
LCGU, Au layers II, III&IV [1, 9]: 167 ± 9 μmol/100 g/min
LCGU, Au layers V & VI [1, 9]: 112 ± 9 μmol/100 g/min
LCGU, AuD layer I [1, 9]: 139 ± 9 μmol/100 g/min
LCGU, AuD layers II, III&IV [1, 9]: 153 ± 9 μmol/100 g/min
LCGU, AuD layers V & VI [1, 9]: 108 ± 7 μmol/100 g/min
LCGU, CA1 molecular layer [1, 9]: 92 ± 5 μmol/100 g/min
LCGU, CA1 pyramidal cell layer [1, 9]: 63 ± 4 μmol/100 g/min
LCGU, CA1 stratum oriens [1, 9]: 59 ± 4 μmol/100 g/min
LCGU, CA1 stratum radiatum [1, 9]: 66 ± 4 μmol/100 g/min
LCGU, CA3 molecular layer [1, 9]: 90 ± 4 μmol/100 g/min
LCGU, CA3 pyramidal cell layer [1, 9]: 71 ± 4 μmol/100 g/min
LCGU, CA3 stratum oriens [1, 9]: 64 ± 4 μmol/100 g/min
LCGU, CA3 stratum radiatum [1, 9]: 73 ± 1 μmol/100 g/min
LCGU, DLL [1, 9]: 92 ± 4 μmol/100 g/min
LCGU, MD [1, 9]: 117 ± 5 μmol/100 g/min
LCGU, PrL layer I [1, 9]: 114 ± 4 μmol/100 g/min
LCGU, PrL layers II & III [1, 9]: 131 ± 4 μmol/100 g/min
LCGU, PrL layers V & VI [1, 9]: 93 ± 4 μmol/100 g/min
LCGU, Rt [1, 9]: 86 ± 4 μmol/100 g/min
LCGU, VLL [1, 9]: 106 ± 5 μmol/100 g/min
LCGU, cochlear nucleus [1, 9]: 99 ± 9 μmol/100 g/min
LCGU, mO layer I [1, 9]: 93 ± 4 μmol/100 g/min
LCGU, mO layers II & III [1, 9]: 106 ± 4 μmol/100 g/min
LCGU, mO layers V & VI [1, 9]: 102 ± 4 μmol/100 g/min
effect on PCP-induced reductions in the level of CIRL1 mRNA [2]: not
effect on PCP-induced reductions in CIRL2 [3]: reversed
effect on PCP-induced reductions in CIRL3 [4]: reversed
levels of TNFα in rat prefrontal cortex [5]: significantly different from the chronic PCP group

CN1CCN(C2=Nc3cc(Cl)ccc3Nc3ccccc32)CC1 [clozapine]
LCGU, Au layer I [1, 8]: 140 ± 5 μmol/100 g/min
LCGU, Au layers II, III&IV [1, 8]: 166 ± 6 μmol/100 g/min
LCGU, Au layers V & VI [1, 8]: 118 ± 4 μmol/100 g/min
LCGU, AuD layer I [1, 8]: 135 ± 5 μmol/100 g/min
LCGU, AuD layers II, III&IV [1, 8]: 152 ± 6 μmol/100 g/min
LCGU, AuD layers V & VI [1, 8]: 107 ± 4 μmol/100 g/min
LCGU, CA1 molecular layer [1, 8]: 87 ± 2 μmol/100 g/min
LCGU, CA1 pyramidal cell layer [1, 8]: 62 ± 2 μmol/100 g/min
LCGU, CA1 stratum oriens [1, 8]: 57 ± 2 μmol/100 g/min
LCGU, CA1 stratum radiatum [1, 8]: 66 ± 3 μmol/100 g/min
LCGU, CA3 molecular layer [1, 8]: 84 ± 2 μmol/100 g/min
LCGU, CA3 pyramidal cell layer [1, 8]: 69 ± 3 μmol/100 g/min
LCGU, CA3 stratum oriens [1, 8]: 62 ± 1 μmol/100 g/min
LCGU, CA3 stratum radiatum [1, 8]: 69 ± 2 μmol/100 g/min
LCGU, DLL [1, 8]: 108 ± 5 μmol/100 g/min
LCGU, MD [1, 8]: 113 ± 3 μmol/100 g/min
LCGU, PrL layer I [1, 8]: 118 ± 6 μmol/100 g/min
LCGU, PrL layers II & III [1, 8]: 134 ± 7 μmol/100 g/min
LCGU, PrL layers V & VI [1, 8]: 104 ± 5 μmol/100 g/min
LCGU, Rt [1, 8]: 81 ± 2 μmol/100 g/min
LCGU, VLL [1, 8]: 118 ± 5 μmol/100 g/min
LCGU, cochlear nucleus [1, 8]: 119 ± 8 μmol/100 g/min
LCGU, mO layer I [1, 8]: 104 ± 5 μmol/100 g/min
LCGU, mO layers II & III [1, 8]: 112 ± 6 μmol/100 g/min
LCGU, mO layers V & VI [1, 8]: 115 ± 5 μmol/100 g/min
LCGU, Au layer I [1, 9]: 136 ± 6 μmol/100 g/min
LCGU, Au layers II, III&IV [1, 9]: 169 ± 6 μmol/100 g/min
LCGU, Au layers V & VI [1, 9]: 126 ± 4 μmol/100 g/min
LCGU, AuD layer I [1, 9]: 136 ± 4 μmol/100 g/min
LCGU, AuD layers II, III&IV [1, 9]: 154 ± 5 μmol/100 g/min
LCGU, AuD layers V & VI [1, 9]: 115 ± 6 μmol/100 g/min
LCGU, CA1 molecular layer [1, 9]: 102 ± 5 μmol/100 g/min
LCGU, CA1 pyramidal cell layer [1, 9]: 78 ± 4 μmol/100 g/min
LCGU, CA1 stratum oriens [1, 9]: 72 ± 4 μmol/100 g/min
LCGU, CA1 stratum radiatum [1, 9]: 80 ± 4 μmol/100 g/min
LCGU, CA3 molecular layer [1, 9]: 96 ± 4 μmol/100 g/min
LCGU, CA3 pyramidal cell layer [1, 9]: 81 ± 4 μmol/100 g/min
LCGU, CA3 stratum oriens [1, 9]: 74 ± 4 μmol/100 g/min
LCGU, CA3 stratum radiatum [1, 9]: 83 ± 5 μmol/100 g/min
LCGU, DLL [1, 9]: 99 ± 5 μmol/100 g/min
LCGU, MD [1, 9]: 124 ± 6 μmol/100 g/min
LCGU, PrL layer I [1, 9]: 119 ± 4 μmol/100 g/min
LCGU, PrL layers II & III [1, 9]: 139 ± 5 μmol/100 g/min
LCGU, PrL layers V & VI [1, 9]: 98 ± 4 μmol/100 g/min
LCGU, Rt [1, 9]: 95 ± 4 μmol/100 g/min
LCGU, VLL [1, 9]: 109 ± 5 μmol/100 g/min
LCGU, cochlear nucleus [1, 9]: 108 ± 7 μmol/100 g/min
LCGU, mO layer I [1, 9]: 93 ± 4 μmol/100 g/min
LCGU, mO layers II & III [1, 9]: 109 ± 4 μmol/100 g/min
LCGU, mO layers V & VI [1, 9]: 106 ± 5 μmol/100 g/min
